Data published in article PMC7136958, “Targeting the pregnane X receptor using microbial metabolite mimicry” (EMBO Molecular Medicine, 2020).
Values joined by “and” are separate entries in the source; they are usually repeats but may differ in a detail not shown here. Identical values can stand only once. Like-named read-outs stand apart in the source and are kept apart here.

Assays:
[1] = tested on: CYP1A1, CYP3A4, MDR1 mRNA in HepaRG cells
Procedure: Caco‐2 cells were purchased from ATCC, and authenticity was validated by multiplexed STR DNA (short tandem repeat deoxyribonucleic acid) profiling performed by Genetica. […] Cells were maintained at 37°C and 5% CO2 in a humidified incubator. […] Three HepaRG™‐derived cell lines, including 5F Clone control cells, and cells with targeted functional PXR and AhR gene knockouts, PXR‐KO and AhR‐KO, respectively, were purchased from Sigma (Czech Republic). Cells were handled according to the manufacturer's protocol. Human hepatocytes were purchased from Biopredic International (France) and Triangle Research Labs, LLC, Lonza (USA). Cultures were maintained in serum‐free medium at 37°C and 5% CO2 in a humidified incubator.
The measurements were performed in triplicate.

mice = assay: 30 Day toxicity study in mice; assay type: in vivo, mouse
Procedure: The LS180 cell line was used to assess cell cytotoxicity using the MTT (3‐(4,5‐dimethylthiazolyl‐2)‐2,5‐diphenyltetrazolium bromide) assay as previously described (Bartonkova et al, 2015, 2016). […] FKK6 was selected as a lead compound for assessment, given that it had the more favorable PXR‐selective ligand activity in cells. […] The mice were gavaged for ten consecutive days and necropsied on day 12 with the collection of blood (serum). […] Similarly, a 30‐day toxicity test was conducted in mice using FKK6 at an oral dose of 200 μM in 0.8% DMSO per day. We chose this dose to stay within the safe DMSO dose administered to mice over 30 days. On day 30, we necropsied the mice and collected blood (serum).

HDAC1 = target: T1, HDAC1 (Homo sapiens, UniProt Q13547); assay: HDAC fluorescent activity assay; assay type: biochemical; settings: substrate Peptide (Ac), replicates
T1 construct: purchased Reaction Biology Corp
T1 sequence (Q13547 whole entry): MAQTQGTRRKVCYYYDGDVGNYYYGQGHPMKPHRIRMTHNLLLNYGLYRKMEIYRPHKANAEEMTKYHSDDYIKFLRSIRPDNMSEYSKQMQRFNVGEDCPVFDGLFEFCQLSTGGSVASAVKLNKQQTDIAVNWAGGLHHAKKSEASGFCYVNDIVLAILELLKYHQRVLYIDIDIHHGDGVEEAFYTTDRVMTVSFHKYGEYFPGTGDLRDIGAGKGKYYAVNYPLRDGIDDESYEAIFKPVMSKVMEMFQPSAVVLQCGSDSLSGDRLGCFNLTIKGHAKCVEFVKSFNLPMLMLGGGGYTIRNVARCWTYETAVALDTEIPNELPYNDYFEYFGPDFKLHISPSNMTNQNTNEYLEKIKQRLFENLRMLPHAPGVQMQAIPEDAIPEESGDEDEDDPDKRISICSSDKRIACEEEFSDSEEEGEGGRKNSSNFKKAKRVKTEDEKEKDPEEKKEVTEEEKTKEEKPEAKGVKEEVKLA
Procedure: (§1) The following […] assays (HDAC, SIRT1, PRMT1, PARP1, p300, pCAF) were performed by Reaction Biology Corp. FKK6 was screened at a single concentration of 10 μM in duplicate in two separate experiments. The appropriate controls for the individual assays are published. […]
(§2) The Histone Deacetylase (HDAC) fluorescent activity assay (HDAC1-3) is based on the using 2X purified human enzyme mixed with the reaction buffer (50 mM Tris-HCl pH 8, 137 mM NaCl, 2.7 mM KCl, and 1 mM MgCl2, 1 mg/mL fresh BSA and 1% fresh DMSO) and then compounds (in 100% DMSO) are titrated in using Acoustic Technology.
(§3) The 2X HDAC substrate is a fluorogenic acetylated peptide from p53 (residues 379 - 38 2 RHKK(Ac)AMC) which is mixed in with the enzyme-compound complex and incubated for 1-2 h at 30 °C. In the development step, a proprietary developer with trichostatin A (or TMP269) is added to stop the reaction and to generate fluorescent color which is read using an EnVision Multilabel Plate Reader (Perkin Elmer) (Ex 360 nm/ Em 460 nm). For all enzyme activity assays, the percentage of enzyme activity (relative to DMSO controls) and IC50 values were calculated using GraphPad Prism 4 program (sigmoidal dose response equations). […]
(§4) SMCT solution (0.32 M sucrose, 10 mM Tris -HCl, 1 mM MgCl2, 1 mM CaCl2, 0.1 mM PMSF and freshly prepared 1 mM DTT at pH 7.4) once in the presence of 0.25% Triton X-100 and once in its

HDAC2 = target: T2, HDAC2 (Homo sapiens, UniProt Q92769); assay: HDAC fluorescent activity assay; assay type: biochemical; settings: substrate Peptide (Ac), replicates
T2 construct: purchased Reaction Biology Corp
T2 sequence (Q92769 whole entry): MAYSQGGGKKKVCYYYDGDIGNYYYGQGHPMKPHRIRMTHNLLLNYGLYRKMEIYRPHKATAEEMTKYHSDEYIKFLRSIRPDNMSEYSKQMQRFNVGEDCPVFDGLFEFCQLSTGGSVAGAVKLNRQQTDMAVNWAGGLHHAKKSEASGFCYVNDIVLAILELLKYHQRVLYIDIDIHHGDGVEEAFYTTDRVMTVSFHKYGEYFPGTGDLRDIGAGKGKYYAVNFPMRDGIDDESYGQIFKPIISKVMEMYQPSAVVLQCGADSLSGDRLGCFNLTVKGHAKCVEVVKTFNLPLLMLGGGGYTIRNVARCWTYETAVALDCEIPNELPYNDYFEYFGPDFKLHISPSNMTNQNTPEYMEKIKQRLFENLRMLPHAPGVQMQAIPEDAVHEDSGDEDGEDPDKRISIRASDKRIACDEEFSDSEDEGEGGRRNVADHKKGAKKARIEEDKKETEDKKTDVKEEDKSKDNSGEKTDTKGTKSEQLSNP
Procedure: as §1, §2, §3, §4

HDAC3 = target: T3, HDAC3 (Homo sapiens, UniProt O15379); assay: HDAC fluorescent activity assay; assay type: biochemical; settings: substrate Peptide (Ac), replicates
T3 construct: purchased Reaction Biology Corp
T3 sequence (O15379 whole entry): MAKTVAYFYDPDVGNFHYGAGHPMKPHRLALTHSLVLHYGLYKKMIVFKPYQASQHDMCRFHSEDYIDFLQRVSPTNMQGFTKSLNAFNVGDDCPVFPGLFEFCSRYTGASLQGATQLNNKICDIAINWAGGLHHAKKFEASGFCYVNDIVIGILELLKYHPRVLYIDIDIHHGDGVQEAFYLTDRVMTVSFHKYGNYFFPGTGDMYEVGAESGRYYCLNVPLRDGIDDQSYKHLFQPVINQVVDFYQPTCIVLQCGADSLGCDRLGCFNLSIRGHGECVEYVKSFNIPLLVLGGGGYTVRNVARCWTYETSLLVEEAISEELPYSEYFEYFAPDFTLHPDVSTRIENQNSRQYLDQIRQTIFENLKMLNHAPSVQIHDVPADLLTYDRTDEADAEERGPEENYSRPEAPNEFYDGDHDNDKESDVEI
T3 sequence (Q9Y618 395-489 partner limits assumed): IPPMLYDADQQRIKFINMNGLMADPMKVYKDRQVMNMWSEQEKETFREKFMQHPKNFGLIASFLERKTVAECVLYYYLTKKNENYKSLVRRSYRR
Procedure: as §1, §2, §3, §4

ERK3 = ERK3 (Homo sapiens, UniProt Q16659); assay: KINOMEscan select kinase screen; assay type: binding; settings: two experiments
ERK3, sequence (Q16659 whole entry): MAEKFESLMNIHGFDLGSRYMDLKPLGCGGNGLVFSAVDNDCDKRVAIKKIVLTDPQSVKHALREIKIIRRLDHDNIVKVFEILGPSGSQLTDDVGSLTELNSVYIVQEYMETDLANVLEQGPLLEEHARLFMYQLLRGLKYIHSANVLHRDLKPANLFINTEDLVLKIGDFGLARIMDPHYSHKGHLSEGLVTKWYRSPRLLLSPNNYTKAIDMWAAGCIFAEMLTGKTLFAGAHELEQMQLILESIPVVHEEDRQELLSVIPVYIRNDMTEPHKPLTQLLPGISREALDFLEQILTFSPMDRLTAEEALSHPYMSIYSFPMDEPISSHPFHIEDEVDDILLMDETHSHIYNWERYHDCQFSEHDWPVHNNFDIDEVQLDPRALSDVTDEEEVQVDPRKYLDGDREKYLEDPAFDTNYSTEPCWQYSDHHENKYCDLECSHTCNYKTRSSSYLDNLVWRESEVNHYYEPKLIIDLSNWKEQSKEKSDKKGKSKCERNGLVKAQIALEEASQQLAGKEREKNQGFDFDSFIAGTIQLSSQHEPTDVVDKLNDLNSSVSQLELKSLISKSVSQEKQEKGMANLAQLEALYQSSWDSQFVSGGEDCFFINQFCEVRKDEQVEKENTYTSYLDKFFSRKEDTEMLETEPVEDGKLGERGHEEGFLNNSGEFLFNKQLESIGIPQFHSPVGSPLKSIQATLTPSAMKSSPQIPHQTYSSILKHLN
Procedure: Kinase Assays. The kinase inhibition assays were conducted by DiscoverX on a platform assay by Ambit BioSciences as described previously 16,17. FKK6 was screened at a single concentration of 10 μM in duplicate. The scanMAXSM assay panel measures 468 kinases
(https://www.discoverx.com/services/drug-discovery-development-services/kinase-profiling/kinomescan/scanmax). The assays measure a compound’s ability to inhibit binding of a canonical ligand substrate, with 0% activity of control corresponding to full inhibition and 100% activity of control to no inhibition. […]
quantitative measure of compound selectivity based on the number of kinase hits (enzymes inhibited) divided by the total number of distinct kinases tested. Three different activity cut-offs were analyzed – […]
; and S(1) or % activity of control
< 1. To illustrate effect or lack of effect, an image of the entire family of kinases tested were grouped by families and S(35). The TREEspot Kinase dendrogram image was generated using TREEspot™ Software Tool and reprinted with permission from KINOME scan®, a division of DiscoveRx […]

[2] = oral 200 μM in 0.8% DMSO per day, 30 days
[3] = read-out: % Enzyme Activity to DMSO controls

**Q.** `C#CCC(O)(c1ccncc1)c1cc2ccccc2n1S(=O)(=O)c1ccccc1` (centres unmarked) [FKK6] was tested. Which “CYP1A1 mRNA induction” value [1] did it give?
**A.** The value was “did not induce”.

**Q.** What about the “MDR-1 mRNA fold to C” value ([1]; HepaRG AHR-KO, normalised to GAPDH, fold vs UT) of the same compound?
**A.** Its value is 1.31 fold.

**Q.** What about the “CYP1A1 (1A1) mRNA, fold to C” value ([1]; human, 24 h) of the same compound?
**A.** Its value is 8.33 fold.

**Q.** What about the “CYP3A4 (3A4) mRNA, fold to C” value ([1]; human, 24 h) of the same compound?
**A.** Its value is 2.91 fold.

**Q.** And the “CYP3A4 mRNA induction” value ([1]; human, 24 h)?
**A.** Its value is “only in HepaRG™ control 5F clone”.

**Q.** And the “MDR1 mRNA fold to C” value ([1]; human, 24 h)?
**A.** Its value is 1.04 fold.

**Q.** And the “MDR-1 mRNA, fold to C” value ([1]; human, 24 h)?
**A.** Its value is 0.98 fold.

**Q.** And the “Histopathology: Liver” value (mice; 30 day, n=6)?
**A.** The value was “Mild perivascular lymphohistiocytic aggregates (n=4)”.

**Q.** What about the “Histopathology: Lung” value (mice; 30 day, n=6) of the same compound?
**A.** The value was “Mild leukocytes (n=2)”.

**Q.** What about the “Histopathology: Spleen” value (mice; 30 day, n=6) of the same compound?
**A.** Its value is “Mild lymphoid hyperplasia (n=2)”.

**Q.** What about the serum chemistry profiles (mice; [2]) of the same compound?
**A.** The serum chemistry profiles was “did not significantly alter serum chemistry profiles”.

**Q.** What about the “tissue pathology vs vehicle” value (mice; [2]) of the same compound?
**A.** Its value is “did not significantly alter serum chemistry profiles (Fig EV3C and D) or impact tissue pathology”.

**Q.** And the “% Enzyme Activity to DMSO controls” value (HDAC1; 10 μM)?
**A.** The value was 101.46% and 89.76% and 86.7%.

**Q.** And the remaining activity at 10 µM (HDAC1; [3])?
**A.** The remaining activity at 10 µM was 106%.

**Q.** And the “% Enzyme Activity to DMSO controls” value (HDAC2; 10 μM)?
**A.** Its value is 78.19% and 83.24% and 88.71%.

**Q.** What about the remaining activity at 10 µM (HDAC2; [3]) of the same compound?
**A.** Its remaining activity at 10 µM is 86.3%.

**Q.** And the “% Enzyme Activity to DMSO controls” value (HDAC3; 10 μM)?
**A.** The value was 116.9% and 114.05% and 107.82%.

**Q.** What about the remaining activity at 10 µM (HDAC3; [3]) of the same compound?
**A.** Its remaining activity at 10 µM is 122%.

**Q.** Which “CYP1A1 mRNA induction” value [1] does the source give for `O=C(c1ccncc1)c1cc2ccccc2n1S(=O)(=O)c1ccccc1` [FKK5, (1-(phenylsulfonyl)-1H-indol-2-yl)(pyridin-4-yl)methanone] here?
**A.** Its value is “did not induce”.

**Q.** What about the “CYP3A4 mRNA induction” value [1] of the same compound?
**A.** Its value is “HepaRG™ AhR‐KO cells”.

**Q.** And the “CYP1A1 (1A1) mRNA, fold to C” value ([1]; human, 24 h)?
**A.** The value was 0.81 fold.

**Q.** What about the “CYP3A4 (3A4) mRNA, fold to C” value ([1]; human, 24 h) of the same compound?
**A.** Its value is 1.92 fold.

**Q.** What about the “MDR1 mRNA fold to C” value ([1]; human, 24 h) of the same compound?
**A.** Its value is 1.03 fold.

**Q.** And the “MDR-1 mRNA fold to C” value ([1]; human, 24 h)?
**A.** Its value is 1.25 fold.

**Q.** And the “MDR-1 mRNA, fold to C” value ([1]; human, 24 h)?
**A.** The value was 0.96 fold.

**Q.** What about the “%Ctrl” value (ERK3; 10000 nM, 10 µM) of the same compound?
**A.** The value was 88 %Ctrl.

**Q.** What about the remaining binding at 10 µM (ERK3; 10000 nM, read-out: %Ctrl) of the same compound?
**A.** Its remaining binding at 10 µM is 100%.

**Q.** What about the “%Ctrl” value (ERK3; 25000 nM, 25 µM) of the same compound?
**A.** Its value is 93 %Ctrl.

**Q.** What about the remaining binding at 25 µM (ERK3; 25000 nM, read-out: %Ctrl) of the same compound?
**A.** The remaining binding at 25 µM was 80%.
